Our source for the IC50 values is US10556902B2 (Asceneuron SA, priority 2016, dated 2020).

This test deals with His-Tagged hOGA (human O-GlcNAcase) (Homo sapiens (Human), UniProt O60502). Description: Human O-GlcNAcase enzyme inhibition assay.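 Note: reactions contained 20 nM His-tagged hOGA enzyme with 10 µM FL-GlcNAc substrate.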 Type of test: biochemical. The note with it: OGA enzyme inhibition assay; FL-GlcNAc substrate, pH 6.5; activity classes defined in μM; read-out: OGA IC50.
Chain of His-Tagged hOGA (human O-GlcNAcase) (O60502 whole entry): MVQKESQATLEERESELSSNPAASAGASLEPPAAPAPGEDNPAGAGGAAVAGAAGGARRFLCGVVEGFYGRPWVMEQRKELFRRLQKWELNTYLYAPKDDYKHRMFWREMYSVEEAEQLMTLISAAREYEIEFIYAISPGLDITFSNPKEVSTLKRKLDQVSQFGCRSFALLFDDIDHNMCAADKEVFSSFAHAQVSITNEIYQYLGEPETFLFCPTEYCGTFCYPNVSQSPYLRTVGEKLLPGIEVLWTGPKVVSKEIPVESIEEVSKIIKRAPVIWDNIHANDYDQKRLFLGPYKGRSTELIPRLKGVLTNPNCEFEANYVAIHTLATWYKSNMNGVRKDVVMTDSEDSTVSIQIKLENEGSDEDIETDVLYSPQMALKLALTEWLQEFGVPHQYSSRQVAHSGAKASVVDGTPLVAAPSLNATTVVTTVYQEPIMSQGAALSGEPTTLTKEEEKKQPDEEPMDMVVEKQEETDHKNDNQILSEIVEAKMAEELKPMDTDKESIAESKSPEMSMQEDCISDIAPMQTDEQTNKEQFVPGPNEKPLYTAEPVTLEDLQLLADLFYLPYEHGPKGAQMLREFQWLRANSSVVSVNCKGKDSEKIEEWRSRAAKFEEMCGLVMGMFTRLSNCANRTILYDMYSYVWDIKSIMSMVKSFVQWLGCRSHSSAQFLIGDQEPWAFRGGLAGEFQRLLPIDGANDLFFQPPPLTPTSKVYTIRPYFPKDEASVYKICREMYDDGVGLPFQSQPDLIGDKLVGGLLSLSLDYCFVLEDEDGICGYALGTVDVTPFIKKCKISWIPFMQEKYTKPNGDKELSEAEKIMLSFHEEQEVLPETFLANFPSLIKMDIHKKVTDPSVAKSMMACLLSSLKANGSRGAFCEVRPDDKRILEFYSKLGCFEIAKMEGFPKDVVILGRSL
Method: Then, 20 nM of His-Tagged hOGA and 10 μM of FL-GlcNAc (Fluorescein mono-beta-D-(2-deoxy-2-N-acetyl) glucopyranoside; Marker Gene Technologies Inc, M1485) were added to the 384-well plate for a final volume of 20 μl.
By IC50 is commonly meant the concentration needed to halve the response being measured. Turning to `CC(c1ccc2nccnc2c1)N1CCN(c2ccc(=O)[nH]c2)CC1` (racemic) [Example 54, 5-(4-(1-(quinoxalin-6-yl)ethyl)piperazin-1-yl)pyridin-2(1H)-one], the IC50 lay within 0.2 to 1 µM.
Next, `CC(C)C(O)c1ccc(N2CCN(C(C)c3ccc4nccnc4c3)CC2)nc1` (racemic) [Example 55, 2-methyl-1-(6-(4-(1-(quinoxalin-6-yl)ethyl)piperazin-1-yl)pyridin-3-yl)propan-1-ol]: 0.2 to 1 µM.
For `CC(c1ccc2nccnc2c1)N1CCN(c2ccc(C(O)C(F)(F)F)cn2)CC1` (racemic) [Example 56, 2,2,2-trifluoro-1-(6-(4-(1-(quinoxalin-6-yl)ethyl)piperazin-1-yl)pyridin-3-yl)ethan-1-ol], the IC50 was in the range of 0.05 to 0.2 µM.
Next, `CC(c1ccc2nccnc2c1)N1CCN(c2ccc(C3(O)CCOCC3)cn2)CC1` (racemic) [Example 57, 4-(6-(4-(1-(quinoxalin-6-yl)ethyl)piperazin-1-yl)pyridin-3-yl)tetrahydro-2H-pyran-4-ol]: 0.05 to 0.2 µM; `CC(c1ccc2nccnc2c1)N1CCN(c2ccc(C3(O)CCOC3)cn2)CC1` (racemic) [Example 58, 3-(6-(4-(1-(quinoxalin-6-yl)ethyl)piperazin-1-yl)pyridin-3-yl)tetrahydrofuran-3-ol]: 0.05 to 0.2 µM.
Next, `CC(c1ccc2nccnc2c1)N1CCN(c2ccc(C3(O)COC3)cn2)CC1` (racemic) [Example 59, 3-(6-(4-(1-(quinoxalin-6-yl)ethyl)piperazin-1-yl)pyridin-3-yl)oxetan-3-ol]: 0.05 to 0.2 µM; `CC(c1ccc2nccnc2c1)N1CCN(c2ccc(C3(O)CCCCC3)cn2)CC1` (racemic) [Example 60, 1-(6-(4-(1-(quinoxalin-6-yl)ethyl)piperazin-1-yl)pyridin-3-yl)cyclohexan-1-ol]: 0.2 to 1 µM; `CC(c1ccc2nccnc2c1)N1CCN(c2ccc(C3(O)CCCC3)cn2)CC1` (racemic) [Example 61, 1-(6-(4-(1-(quinoxalin-6-yl)ethyl)piperazin-1-yl)pyridin-3-yl)cyclopentan-1-ol]: 0.05 to 0.2 µM.
For the compound `COC(=O)c1ccc(N2CCN(C(C)c3ccc4c(c3)OCC4)CC2)nc1` (racemic) [Example 62, Methyl 6-(4-(1-(2,3-dihydrobenzofuran-6-yl)ethyl)piperazin-1-yl)nicotinate], the IC50 was below 0.05 µM.
Under `CC(c1ccc2c(c1)OCC2)N1CCN(c2ccc(C(=O)N(C)C)cn2)CC1` (racemic) [Example 63, 6-(4-(1-(2,3-dihydrobenzofuran-6-yl)ethyl)piperazin-1-yl)-N,N-dimethylnicotinamide] stands below 0.05 µM; under `CNC(=O)c1ccc(N2CCN(C(C)c3ccc4c(c3)OCC4)CC2)nc1` (racemic) [Example 64, 6-(4-(1-(2,3-dihydrobenzofuran-6-yl)ethyl)piperazin-1-yl)-N-methylnicotinamide], below 0.05 µM.
Next, `CC(c1ccc2c(c1)OCC2)N1CCN(c2ccc(C(=O)O)cn2)CC1` (racemic) [Example 65, 6-(4-(1-(2,3-Dihydrobenzofuran-6-yl)ethyl)piperazin-1-yl)nicotinic acid]: below 0.05 µM; `COC(=O)c1ccc(N2CCN(C(C)c3ccc4nccnc4c3)CC2)nc1` (racemic) [Example 66, Methyl-6-(4-(1-(quinoxalin-6-yl)ethyl)piperazin-1-yl) nicotinate]: 0.05 to 0.2 µM; `CC(c1ccc2nccnc2c1)N1CCN(c2ccc(C(=O)O)cn2)CC1` (racemic) [Example 67, 6-(4-(1-(quinoxalin-6-yl)ethyl)piperazin-1-yl) nicotinic acid]: 0.05 to 0.2 µM.
For `CNC(=O)c1cccc(N2CCN(C(C)c3ccc4nccnc4c3)CC2)n1` (racemic) [Example 68, N-methyl-6-(4-(1-(quinoxalin-6-yl)ethyl)piperazin-1-yl) picolinamide], the IC50 is 0.05 to 0.2 µM.
Under `CC(c1ccc2nccnc2c1)N1CCN(c2cccc(C(=O)N(C)C)n2)CC1` (racemic) [Example 69, N, N-dimethyl-6-(4-(1-(quinoxalin-6-yl)ethyl)piperazin-1-yl) picolinamide] stands 0.2 to 1 µM; under `COC(=O)c1cccc(N2CCN(C(C)c3ccc4nccnc4c3)CC2)n1` (racemic) [Example 70, Methyl 6-(4-(1-(quinoxalin-6-yl)ethyl)piperazin-1-yl)picolinate], 0.2 to 1 µM.
Under `CC(c1ccc2c(c1)OCC2)N1CCN(c2ccc(S(C)(=O)=O)cn2)CC1` (racemic) [Example 71] stands below 0.05 µM; under `CC(c1ccc2nccnc2c1)N1CCN(c2ccc(S(C)(=O)=O)cn2)CC1` (racemic) [Example 72, 6-(1-(4-(5-(methylsulfonyl)pyridin-2-yl)piperazin-1-yl)ethyl)quinoxaline], 0.05 to 0.2 µM; under `CC(c1ccc2scnc2c1)N1CCN(c2ncc(CO)cn2)CC1` (racemic) [Example 73, (2-(4-(1-(benzo[d]thiazol-5-yl)ethyl)piperazin-1-yl)pyrimidin-5-yl)methanol], below 0.05 µM.
Next, `CC(c1ccc2c(c1)OCC2)N1CCN(c2ncc(C(C)(C)O)cn2)CC1` (racemic) [Example 74, 2-(2-(4-(1-(2,3-dihydrobenzofuran-6-yl)ethyl)piperazin-1-yl)pyrimidin-5-yl) propan-2-ol]: below 0.05 µM.
Take `CC(c1ccc2c(c1)OCC2)N1CCN(c2ncc(CO)cn2)CC1` (racemic) [Example 75, (2-(4-(1-(2,3-Dihydrobenzofuran-6-yl)ethyl)piperazin-1-yl)pyrimidin-5-yl) methanol]: the IC50 was below 0.05 µM.
Under `CC(c1ccc2c(c1)OCC2)N1CCN(c2ncc(C3(O)CC3)cn2)CC1` (racemic) [Example 76, 1-(2-(4-(1-(2,3-dihydrobenzofuran-6-yl)ethyl)piperazin-1-yl)pyrimidin-5-yl)cyclopropan-1-ol] stands below 0.05 µM; under `CC(c1ccc2c(c1)OCC2)N1CCN(c2ncc(C(O)C(F)(F)F)cn2)CC1` (racemic) [Example 77, 1-(2-(4-(1-(2,3-dihydrobenzofuran-6-yl)ethyl)piperazin-1-yl)pyrimidin-5-yl)-2,2,2-trifluoroethan-1-ol], below 0.05 µM; under `CC(C)C(O)c1cnc(N2CCN(C(C)c3ccc4c(c3)OCC4)CC2)nc1` (racemic) [Example 78, 1-(2-(4-(1-(2,3-dihydrobenzofuran-6-yl)ethyl)piperazin-1-yl)pyrimidin-5-yl)-2-methylpropan-1-ol], below 0.05 µM.
Under `CC(c1ccc2c(c1)OCC2)N1CCN(c2ncc(C3(O)CCOC3)cn2)CC1` (racemic) [Example 79, 3-(2-(4-(1-(2,3-dihydrobenzofuran-6-yl)ethyl)piperazin-1-yl)pyrimidin-5-yl)tetrahydrofuran-3-ol] stands below 0.05 µM; under `CC(c1ccc2c(c1)OCC2)N1CCN(c2ncc(C3(O)CCCCC3)cn2)CC1` (racemic) [Example 80, 1-(2-(4-(1-(2,3-dihydrobenzofuran-6-yl)ethyl)piperazin-1-yl)pyrimidin-5-yl)cyclohexan-1-ol], below 0.05 µM.
Under `CC(c1ccc2c(c1)OCC2)N1CCN(c2ncc(C3(O)CCOCC3)cn2)CC1` (racemic) [Example 81, 4-(2-(4-(1-(2,3-dihydrobenzofuran-6-yl)ethyl)piperazin-1-yl)pyrimidin-5-yl)tetrahydro-2H-pyran-4-ol] stands below 0.05 µM; under `CC(c1ccc2c(c1)OCC2)N1CCN(c2ncc(C3(O)COC3)cn2)CC1` (racemic) [Example 82, 3-(2-(4-(1-(2,3-dihydrobenzofuran-6-yl)ethyl)piperazin-1-yl)pyrimidin-5-yl)oxetan-3-ol], below 0.05 µM.
In the case of `CC(c1ccc2cccnc2n1)N1CCN(c2ncc(C(O)C(F)(F)F)cn2)CC1` (racemic) [Example 83, 1-(2-(4-(1-(1,8-naphthyridin-2-yl)ethyl)piperazin-1-yl)pyrimidin-5-yl)-2,2,2-trifluoroethan-1-ol], the IC50 was below 0.05 µM.
Under `CC(O)c1cnc(N2CCN(C(C)c3ccc4nccnc4c3)CC2)nc1` (racemic) [Example 84, 1-(2-(4-(1-(quinoxalin-6-yl)ethyl)piperazin-1-yl)pyrimidin-5-yl) ethan-1-ol] stands 0.05 to 0.2 µM; under `CC(c1ccc2nccnc2c1)N1CCN(c2ncc(C(C)(C)O)cn2)CC1` (racemic) [Example 85, 2-(2-(4-(1-(quinoxalin-6-yl)ethyl)piperazin-1-yl)pyrimidin-5-yl) propan-2-ol], 0.05 to 0.2 µM; under `CC(c1ccc2nccnc2c1)N1CCN(c2ncc(CO)cn2)CC1` (racemic) [Example 86, (2-(4-(1-(Quinoxalin-6-yl)ethyl)piperazin-1-yl)pyrimidin-5-yl) methanol], 0.05 to 0.2 µM.
Under `CC(c1ccc2nccnc2c1)N1CCN(c2ncc(C(O)C(F)(F)F)cn2)CC1` (racemic) [Example 87, 2,2,2-trifluoro-1-(2-(4-(1-(quinoxalin-6-yl)ethyl)piperazin-1-yl)pyrimidin-5-yl)ethan-1-ol] stands 0.05 to 0.2 µM.
Under `CC(C)C(O)c1cnc(N2CCN(C(C)c3ccc4nccnc4c3)CC2)nc1` (racemic) [Example 88, 2-methyl-1-(2-(4-(1-(quinoxalin-6-yl)ethyl)piperazin-1-yl)pyrimidin-5-yl) propan-1-ol] stands 0.05 to 0.2 µM; under `CC(c1ccc2nccnc2c1)N1CCN(c2ncc(C3(O)CCOCC3)cn2)CC1` (racemic) [Example 89, 4-(2-(4-(1-(quinoxalin-6-yl)ethyl)piperazin-1-yl)pyrimidin-5-yl)tetrahydro-2H-pyran-4-ol], 0.05 to 0.2 µM; under `Cc1cnc(N2CCN(C(C)c3ccc4c(c3)OCC4)CC2)nc1` (racemic) [Example 90, 2-(4-(1-(2,3-dihydrobenzofuran-6-yl)ethyl)piperazin-1-yl)-5-methylpyrimidine], below 0.05 µM.
Take `CC(c1ccn2ccnc2c1)N1CCN(c2ncc(C(F)(F)F)cn2)CC1` (racemic) [Example 91, 7-(1-(4-(5-(trifluoromethyl)pyrimidin-2-yl)piperazin-1-yl)ethyl)imidazo[1,2-a]pyridine]: the IC50 was 1 to 10 µM.
